Measurements as given in the supplement of paper PMC10307832.

Columns and labels:
Experiment in all cases: relative viability (nuclei count vs DMSO), 5 days (fraction); higher = more cells survive
A-427 = system: A-427
Outline: (§1)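 Relative viability was taken as the ratio of nuclei in treated wells to nuclei in vehicle wells. Lung cancer cell lines in 1536-well plates received compounds by pin tool one day after seeding, either one drug alone or a fixed anchor-drug dose plus five library-drug doses (not always all listed) in √10 steps. Nuclei were counted on 4× images after 5 days of treatment, and values are medians of duplicate plates.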

EKVX = system: EKVX
Outline: as §1

NCI-H596 = system: NCI-H596
Outline: as §1

HARA = system: HARA
Outline: as §1

HCC-15 = system: HCC-15
Outline: as §1

COR-L23 = system: COR-L23
Outline: as §1

201T = system: 201T
Outline: as §1

NCI-H1975 = system: NCI-H1975
Outline: as §1

NCI-H358 = system: NCI-H358
Outline: as §1

SW 900 = system: SW 900
Outline: as §1

COR-L 105 = system: COR-L 105
Outline: as §1

NCI-H650 = system: NCI-H650
Outline: as §1

SMILES: NC(=O)Nc1cc(-c2cccc(F)c2)sc1C(=O)N[C@H]1CCCNC1 [AZD7762] + Nc1ncn([C@H]2C[C@H](O)[C@@H](CO)O2)c(=O)n1 [Decitabine] (partner 2 µM)
- relative viability (A-427; first compound 0.01 µM): 0.582
- relative viability (A-427; first compound 0.03162 µM): 0.648
- relative viability (A-427; first compound 0.1 µM): 0.633
- relative viability (A-427; first compound 0.3162 µM): 0.554
- relative viability (A-427; first compound 1 µM): 0.314
- relative viability (EKVX; first compound 0.01 µM): 0.456
- relative viability (EKVX; first compound 0.03162 µM): 0.388
- relative viability (EKVX; first compound 0.1 µM): 0.326
- relative viability (EKVX; first compound 0.3162 µM): 0.395
- relative viability (EKVX; first compound 1 µM): 0.37
- relative viability (NCI-H596; first compound 0.01 µM): 0.978
- relative viability (NCI-H596; first compound 0.03162 µM): 1.02
- relative viability (NCI-H596; first compound 0.1 µM): 1.01
- relative viability (NCI-H596; first compound 0.3162 µM): 1.1
- relative viability (NCI-H596; first compound 1 µM): 1.03
- relative viability (HARA; first compound 0.01 µM): 0.633
- relative viability (HARA; first compound 0.03162 µM): 0.507
- relative viability (HARA; first compound 0.1 µM): 0.66
- relative viability (HARA; first compound 0.3162 µM): 0.539
- relative viability (HARA; first compound 1 µM): 0.211
- relative viability (HCC-15; first compound 0.01 µM): 0.565
- relative viability (HCC-15; first compound 0.03162 µM): 0.587
- relative viability (HCC-15; first compound 0.1 µM): 0.622
- relative viability (HCC-15; first compound 0.3162 µM): 0.553
- relative viability (HCC-15; first compound 1 µM): 0.589
- relative viability (COR-L23; first compound 0.01 µM): 0.485
- relative viability (COR-L23; first compound 0.03162 µM): 0.535
- relative viability (COR-L23; first compound 0.1 µM): 0.563
- relative viability (COR-L23; first compound 0.3162 µM): 0.35
- relative viability (COR-L23; first compound 1 µM): 0.166
- relative viability (201T; first compound 0.01 µM): 0.831
- relative viability (201T; first compound 0.03162 µM): 0.872
- relative viability (201T; first compound 0.1 µM): 0.903
- relative viability (201T; first compound 0.3162 µM): 0.909
- relative viability (201T; first compound 1 µM): 0.938
- relative viability (NCI-H1975; first compound 0.01 µM): 0.427
- relative viability (NCI-H1975; first compound 0.03162 µM): 0.391
- relative viability (NCI-H1975; first compound 0.1 µM): 0.439
- relative viability (NCI-H1975; first compound 0.3162 µM): 0.396
- relative viability (NCI-H1975; first compound 1 µM): 0.266
- relative viability (NCI-H358; first compound 0.01 µM): 0.229
- relative viability (NCI-H358; first compound 0.03162 µM): 0.311
- relative viability (NCI-H358; first compound 0.1 µM): 0.38
- relative viability (NCI-H358; first compound 0.3162 µM): 0.343
- relative viability (NCI-H358; first compound 1 µM): 0.224
- relative viability (SW 900; first compound 0.01 µM): 0.402
- relative viability (SW 900; first compound 0.03162 µM): 0.477
- relative viability (SW 900; first compound 0.1 µM): 0.551
- relative viability (SW 900; first compound 0.3162 µM): 0.481
- relative viability (SW 900; first compound 1 µM): 0.451
- relative viability (COR-L 105; first compound 0.01 µM): 0.711
- relative viability (COR-L 105; first compound 0.03162 µM): 0.664
- relative viability (COR-L 105; first compound 0.1 µM): 0.643
- relative viability (COR-L 105; first compound 0.3162 µM): 0.55
- relative viability (COR-L 105; first compound 1 µM): 0.508
- relative viability (NCI-H650; first compound 0.01 µM): 0.359
- relative viability (NCI-H650; first compound 0.03162 µM): 0.404
